Experimental data taken from the supplement of paper PMC6045584.
± gives the standard deviation of the averaged measurements.

Legend:
[1] = compound: CC(=O)O[C@H]1C(=O)[C@@]2(C)[C@H]([C@H](OC(=O)c3ccccc3)[C@]3(O)C[C@H](OC(=O)[C@H](O)[C@@H](NC(=O)c4ccccc4)c4ccccc4)C(C)=C1C3(C)C)[C@]1(OC(C)=O)CO[C@@H]1C[C@@H]2O [PACLITAXEL]; test: surviving fraction relative to DMSO-only wells; higher = less growth inhibition; conditions: exposure time: 5 days
Outline: (§1)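 Tumour cell lines in log phase were plated in 384-well plates at 250–500 cells per well, then, after 24 hours, exposed continuously for five days to inhibitors at 0.5, 1, 5, 10, 50, 100, 500 and 1000 nM. Viability came from CellTiter-Glo luminescence, and surviving fraction is that signal normalised to the median of DMSO-only wells. Plates were read after 10 minutes at room temperature, and each line, screened three times, was kept only when replicate Pearson r was >0.7 and median Z' was >0.3.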

[2] = compound: O=C(O)C1(C(=O)O)CCC1.[NH2-].[NH2-].[Pt+2] [CARBOPLATIN]; test: as above; conditions: exposure time: 5 days
Outline: as §1

| Test System | surviving fraction ([1]; 0.5 nM) | surviving fraction ([1]; 1 nM) | surviving fraction ([1]; 5 nM) | surviving fraction ([1]; 10 nM) | surviving fraction ([1]; 50 nM) | surviving fraction ([1]; 100 nM) | surviving fraction ([1]; 500 nM) | surviving fraction ([1]; 1000 nM) | surviving fraction ([2]; 0.5 nM) | surviving fraction ([2]; 1 nM) | surviving fraction ([2]; 5 nM) | surviving fraction ([2]; 10 nM) | surviving fraction ([2]; 50 nM) | surviving fraction ([2]; 100 nM) | surviving fraction ([2]; 500 nM) | surviving fraction ([2]; 1000 nM) |
| --- | --- | --- | --- | --- | --- | --- | --- | --- | --- | --- | --- | --- | --- | --- | --- | --- |
| MDAMB157 BREAST | 0.867 ± 0.075 | 0.674 ± 0.019 | 0.144 ± 0.022 | 0.105 ± 0.019 | 0.0473 ± 0.016 | 0.0687 ± 0.028 | 0.0473 ± 0.0098 | 0.069 ± 0.011 | 1.04 ± 0.1 | 0.881 ± 0.024 | 1.02 ± 0.11 | 1.04 ± 0.066 | 1.06 ± 0.12 | 0.957 ± 0.056 | 0.949 ± 0.084 | 0.943 ± 0.13 |
| VCAP PROSTATE | 0.846 ± 0.11 | 0.666 ± 0.052 | 0.179 ± 0.038 | 0.0997 ± 0.0076 | 0.077 ± 0.015 | 0.0693 ± 0.0068 | 0.0677 ± 0.022 | 0.0697 ± 0.0086 | 1.04 ± 0.067 | 0.996 ± 0.04 | 1.11 ± 0.072 | 1.09 ± 0.11 | 1.05 ± 0.13 | 1.21 ± 0.086 | 1.05 ± 0.07 | 1.04 ± 0.18 |
| MDAMB361 BREAST | 0.974 ± 0.073 | 0.952 ± 0.028 | 0.887 ± 0.04 | 0.707 ± 0.021 | 0.585 ± 0.041 | 0.593 ± 0.056 | 0.516 ± 0.046 | 0.546 ± 0.027 | 0.791 ± 0.041 | 0.821 ± 0.11 | 0.808 ± 0.043 | 0.762 ± 0.029 | 0.873 ± 0.062 | 0.754 ± 0.1 | 0.798 ± 0.046 | 0.785 ± 0.028 |
| SCC003 HEADNECK | 0.945 ± 0.11 | 0.805 ± 0.075 | 0.324 ± 0.037 | 0.27 ± 0.028 | 0.192 ± 0.01 | 0.196 ± 0.031 | 0.179 ± 0.021 | 0.166 ± 0.018 | 1.1 ± 0.075 | 1.06 ± 0.04 | 1.1 ± 0.039 | 1.04 ± 0.025 | 1.14 ± 0.027 | 1.03 ± 0.035 | 1.13 ± 0.17 | 0.995 ± 0.051 |
| RDES SOFT TISSUE | 1.099 ± 0.0061 | 1.22 ± 0.22 | 0.189 ± 0.067 | 0.129 ± 0.014 | 0.0673 ± 0.009 | 0.0537 ± 0.0058 | 0.056 ± 0.011 | 0.0623 ± 0.004 | 1.23 ± 0.035 | 0.987 ± 0.091 | 1.14 ± 0.1 | 1.11 ± 0.083 | 1.09 ± 0.15 | 1.23 ± 0.13 | 1.08 ± 0.099 | 1.15 ± 0.14 |
| SCC90 HEADNECK | 0.919 ± 0.038 | 0.95 ± 0.12 | 0.429 ± 0.057 | 0.294 ± 0.063 | 0.119 ± 0.024 | 0.0713 ± 0.011 | 0.07 ± 0.012 | 0.0663 ± 0.01 | 1.02 ± 0.023 | 1.04 ± 0.034 | 1.12 ± 0.18 | 1.11 ± 0.034 | 1.2 ± 0.07 | 1.15 ± 0.012 | 1.14 ± 0.098 | 1.16 ± 0.12 |
| SG27 HEADNECK | 0.88 ± 0.066 | 0.899 ± 0.062 | 0.937 ± 0.032 | 0.935 ± 0.056 | 0.888 ± 0.1 | 0.911 ± 0.097 | 1.01 ± 0.04 | 0.849 ± 0.068 | 1.13 ± 0.014 | 1.05 ± 0.017 | 1.12 ± 0.1 | 1.04 ± 0.038 | 1.18 ± 0.12 | 1.02 ± 0.13 | 1.14 ± 0.27 | 1.03 ± 0.11 |
| ASKA SYNOVIAL | 0.851 ± 0.028 | 0.629 ± 0.052 | 0.203 ± 0.011 | 0.194 ± 0.0031 | 0.262 ± 0.0055 | 0.23 ± 0.011 | 0.199 ± 0.016 | 0.229 ± 0.01 | 1.03 ± 0.06 | 1.05 ± 0.022 | 1.16 ± 0.088 | 1.17 ± 0.061 | 1.14 ± 0.073 | 1.27 ± 0.1 | 1.1 ± 0.097 | 1.09 ± 0.086 |
| HCC1395 BREAST | 0.749 ± 0.14 | 0.821 ± 0.065 | 0.782 ± 0.033 | 0.547 ± 0.11 | 0.419 ± 0.16 | 0.362 ± 0.054 | 0.396 ± 0.088 | 0.405 ± 0.051 | 1.16 ± 0.058 | 1.1 ± 0.044 | 1.16 ± 0.071 | 1.198 ± 0.0097 | 1.15 ± 0.16 | 1.18 ± 0.062 | 1.17 ± 0.13 | 1.04 ± 0.1 |
| CASKI CERVIX | 0.857 ± 0.054 | 0.619 ± 0.029 | 0.0537 ± 0.011 | 0.0343 ± 0.00058 | 0.037 ± 0.005 | 0.0387 ± 0.0067 | 0.0313 ± 0.005 | 0.0303 ± 0.0045 | 0.946 ± 0.064 | 0.877 ± 0.018 | 0.954 ± 0.043 | 0.93 ± 0.069 | 1.05 ± 0.025 | 1.04 ± 0.021 | 1.03 ± 0.077 | 1.03 ± 0.058 |
| ZR751 BREAST | 0.774 ± 0.1 | 0.628 ± 0.042 | 0.52 ± 0.087 | 0.461 ± 0.024 | 0.389 ± 0.042 | 0.437 ± 0.057 | 0.397 ± 0.021 | 0.449 ± 0.023 | 1.16 ± 0.2 | 1.23 ± 0.071 | 1.14 ± 0.13 | 1.18 ± 0.23 | 1.2 ± 0.099 | 1.18 ± 0.25 | 1.26 ± 0.15 | 1.24 ± 0.22 |
| JURKAT HAEMATOPOIETIC AND LYMPHOID TISSUE | 1.01 ± 0.024 | 0.675 ± 0.042 | 0.0347 ± 0.0021 | 0.03 ± 0.001 | 0.0297 ± 0.0011 | 0.0237 ± 0.00058 | 0.02 ± 0.001 | 0.0213 ± 0.00058 | 1 ± 0.021 | 1.05 ± 0.043 | 1 ± 0.025 | 1.03 ± 0.012 | 1 ± 0.039 | 1.07 ± 0.031 | 1.01 ± 0.042 | 1.04 ± 0.019 |
| CADOES1 SOFT TISSUE | 1 ± 0.062 | 0.994 ± 0.13 | 0.955 ± 0.039 | 0.846 ± 0.078 | 0.38 ± 0.11 | 0.188 ± 0.058 | 0.052 ± 0.0017 | 0.0457 ± 0.0015 | 0.992 ± 0.13 | 0.966 ± 0.11 | 0.934 ± 0.052 | 0.987 ± 0.15 | 0.96 ± 0.11 | 0.962 ± 0.078 | 1.1 ± 0.11 | 1.02 ± 0.11 |
| DU4475 BREAST | 0.975 ± 0.17 | 0.946 ± 0.26 | 0.243 ± 0.069 | 0.129 ± 0.021 | 0.0387 ± 0.013 | 0.044 ± 0.0089 | 0.0463 ± 0.02 | 0.035 ± 0.0085 | 1.03 ± 0.064 | 0.931 ± 0.032 | 1.08 ± 0.23 | 1.04 ± 0.089 | 0.909 ± 0.029 | 0.975 ± 0.18 | 0.895 ± 0.06 | 1.03 ± 0.035 |
| G292 BONE | 0.727 ± 0.028 | 0.472 ± 0.021 | 0.196 ± 0.0038 | 0.161 ± 0.0064 | 0.148 ± 0.0067 | 0.147 ± 0.0013 | 0.1228 ± 0.00076 | 0.128 ± 0.0067 | 1.01 ± 0.039 | 1 ± 0.026 | 1.07 ± 0.044 | 1.05 ± 0.015 | 1.04 ± 0.064 | 1.04 ± 0.029 | 1.01 ± 0.021 | 1.03 ± 0.064 |
| 22RV1 PROSTATE | 1.02 ± 0.057 | 1.04 ± 0.066 | 0.121 ± 0.018 | 0.0847 ± 0.0021 | 0.0603 ± 0.0061 | 0.053 ± 0.0036 | 0.0467 ± 0.0057 | 0.0553 ± 0.0046 | 1.1 ± 0.072 | 0.999 ± 0.057 | 1.03 ± 0.051 | 1.02 ± 0.036 | 1.06 ± 0.093 | 1.04 ± 0.12 | 1.06 ± 0.068 | 1.13 ± 0.17 |
| NY BONE | 0.938 ± 0.019 | 0.334 ± 0.015 | 0.0363 ± 0.0075 | 0.0327 ± 0.005 | 0.0363 ± 0.0055 | 0.026 ± 0.0076 | 0.0307 ± 0.0038 | 0.0293 ± 0.0057 | 1.03 ± 0.02 | 0.9813 ± 0.0058 | 1.08 ± 0.019 | 1.03 ± 0.024 | 1.09 ± 0.019 | 1.099 ± 0.0055 | 1.05 ± 0.012 | 1.03 ± 0.016 |
| 143B BONE | 0.9755 ± 0.0078 | 0.99 ± 0.031 | 0.424 ± 0.016 | 0.265 ± 0.018 | 0.134 ± 0.0099 | 0.089 ± 0.013 | 0.0575 ± 0.0092 | 0.0655 ± 0.0064 | 1.11 ± 0.099 | 1.11 ± 0.083 | 1.13 ± 0.06 | 1.14 ± 0.097 | 1.15 ± 0.15 | 1.13 ± 0.053 | 1.13 ± 0.11 | 1.12 ± 0.11 |
| SJSA1 BONE | 0.942 ± 0.048 | 0.833 ± 0.041 | 0.342 ± 0.0057 | 0.18 ± 0.013 | 0.135 ± 0.0021 | 0.113 ± 0.0021 | 0.107 ± 0.01 | 0.114 ± 0.017 | 1.68 ± 0.11 | 1.73 ± 0.089 | 1.56 ± 0.12 | 1.64 ± 0.17 | 0.869 ± 0.07 | 1.376 ± 0.0032 | 1.54 ± 0.088 | 1.16 ± 0.17 |
